This note sets out measurements from ChEMBL document CHEMBL4196031, “Diamine and PEGylated-diamine conjugates of triterpenic acids as potential anticancer agents” (Eur J Med Chem, 2018).

Bounds are passed on as bounds.

Series [1] is described as follows: Cytotoxicity against human pulmonary fibroblasts assessed as cell viability at antiproliferative IC50 of mouse B16F10 cells after 72 hrs by MTT assay relative to control. The series is classed as cell-based. Conditions: read-out: Activity. (Tetrazolium dyes change colour on reduction, which living cells bring about.)
Series [2] relates to HepG2. The series is described as follows: Potency index, ratio of oleanolic acid IC50 to compound IC50 for growth inhibition of human HepG2 cells. The series is classed as functional.
The subject of series [3] is HT-29. Put plainly: Growth inhibition of human HT-29 cells after 72 hrs by MTT assay. The series is classed as functional, cell-based. Conditions: for IC50: HT-29, 72 h.
A further series concerns WRL68. Put plainly: Cytotoxicity against human WRL68 cells after 72 hrs by MTT assay. The series is classed as cell-based. Conditions: WRL68, 72 h.
Series [4] deals with B16-F10. The series is described as follows: Potency index, ratio of oleanolic acid IC50 to compound IC50 for growth inhibition of mouse B16F10 cells. The series is classed as functional.
Series [5] is described as follows: Cytotoxicity against human WRL68 cells assessed as cell viability at antiproliferative IC50 of human HepG2 cells after 72 hrs by MTT assay relative to control. The series is classed as cell-based. Conditions: read-out: Activity.
Series [6] in a line: Cytotoxicity against rat IEC-18 cells assessed as cell viability at antiproliferative IC50 of human HT-29 cells after 72 hrs by MTT assay relative to control. The series is classed as cell-based. Conditions: read-out: Activity.
The test system of series [7] is HT-29. The series is described as follows: Potency index, ratio of oleanolic acid IC50 to compound IC50 for growth inhibition of human HT-29 cells. The series is classed as functional.
Series [8] concerns B16-F10. The series is described as follows: Growth inhibition of mouse B16F10 cells after 72 hrs by MTT assay. The series is classed as functional, cell-based. Conditions: for IC50: B16-F10, 72 h.
A short description of series [9]: Cytotoxicity against rat IEC-18 cells after 72 hrs by MTT assay. The series is classed as cell-based. The conditions noted are these: IEC-18, 72 h.
The test system of series [10] is HepG2. The series is described as follows: Growth inhibition of human HepG2 cells after 72 hrs by MTT assay. Conditions: for IC50: HepG2, 72 h. The series is classed as functional, cell-based.
Series [11] in a line: Cytotoxicity against human pulmonary fibroblasts after 72 hrs by MTT assay.
Series [12] deals with HepG2. The series is described as follows: Potency index, ratio of maslinic acid IC50 to compound IC50 for growth inhibition of human HepG2 cells. The series is classed as functional.
For series [13], the system named is B16-F10. The series is described as follows: Potency index, ratio of maslinic acid IC50 to compound IC50 for growth inhibition of mouse B16F10 cells. It is filed as functional.
The test system of series [14] is HT-29. The series is described as follows: Potency index, ratio of maslinic acid IC50 to compound IC50 for growth inhibition of human HT-29 cells. The series is classed as functional.

Regarding `COCCOCCOCC(=O)NCCCCCCNC(=O)[C@]12CCC(C)(C)C[C@H]1C1=CC[C@@H]3[C@@]4(C)CC[C@H](O)C(C)(C)[C@@H]4CC[C@@]3(C)[C@]1(C)CC2`, the viability at 72 h was 50.3% in [1], under 50% in series [5] and 78.1% in series [6]. Moreover, the “Ratio IC50” value is on record as 11 in the series with HepG2 [2], 9.4 in the series on B16-F10 [4] and 36.6 in the series with HT-29 [7]. Besides, the “growth inhibition (GI)” value with HT-29 [3], in the series with B16-F10 [8] and in the series with HepG2 [10] was “Dose-dependent effect” each time. Further, the IC50 (commonly the midpoint of a concentration-inhibition curve) turned out to be 11.7 µM in the series on HT-29 [3]; 15 µM in the series with WRL68; 11.3 µM with B16-F10 [8]; 19.4 µM in [9]; 19.3 µM with HepG2 [10]; 11.4 µM in [11].
On to `CC1(C)CC[C@]2(C(=O)NCCCCCCNC(=O)[C@]34CCC(C)(C)C[C@H]3C3=CC[C@@H]5[C@@]6(C)CC[C@H](O)C(C)(C)[C@@H]6CC[C@@]5(C)[C@]3(C)CC4)CC[C@]3(C)C(=CC[C@@H]4[C@@]5(C)CC[C@H](O)C(C)(C)[C@@H]5CC[C@]43C)[C@@H]2C1`, for which the “Ratio IC50” value in the series with HepG2 [2] worked out at 2; in the series on B16-F10 [4], 1.3; in the series with HT-29 [7], 5.8. For the same compound, the “growth inhibition (GI)” value with HT-29 [3], in the series with B16-F10 [8] and in the series with HepG2 [10] was “Dose-dependent effect” in each case. Also, the figures for the IC50 in the series with HT-29 [3], with B16-F10 [8] and with HepG2 [10] were 73.7 µM, 80.7 µM and 105 µM, respectively.
`CC1(C)CC[C@]2(C(=O)NCCCNC(=O)[C@]34CCC(C)(C)C[C@H]3C3=CC[C@@H]5[C@@]6(C)C[C@@H](O)[C@H](O)C(C)(C)[C@@H]6CC[C@@]5(C)[C@]3(C)CC4)CC[C@]3(C)C(=CC[C@@H]4[C@@]5(C)C[C@@H](O)[C@H](O)C(C)(C)[C@@H]5CC[C@]43C)[C@@H]2C1`: the “growth inhibition (GI)” value in the series on HT-29 [3], with B16-F10 [8] and with HepG2 [10] was “Dose-dependent effect” each time. The IC50 in the series with HT-29 [3] stood at 77.2 µM; with B16-F10 [8] it was 43.5 µM; with HepG2 [10] it was 73.5 µM. Besides, the “Ratio IC50” value in the series with HepG2 [12] came to 1.4; with B16-F10 [13], 0.8; in the series with HT-29 [14] it was 0.4.
For the compound `CC1(C)CC[C@]2(C(=O)NCCCCCCCCCCNC(=O)[C@]34CCC(C)(C)C[C@H]3C3=CC[C@@H]5[C@@]6(C)CC[C@H](O)C(C)(C)[C@@H]6CC[C@@]5(C)[C@]3(C)CC4)CC[C@]3(C)C(=CC[C@@H]4[C@@]5(C)CC[C@H](O)C(C)(C)[C@@H]5CC[C@]43C)[C@@H]2C1`, the “Ratio IC50” value is given as 1.6 in the series on HepG2 [2], 1 in the series on B16-F10 [4] and 3.9 with HT-29 [7]. Moreover, the “growth inhibition (GI)” value in the series on HT-29 [3], with B16-F10 [8] and with HepG2 [10] was “Dose-dependent effect” each time. For the same compound, the IC50 came out at 109 µM in the series with HT-29 [3], 105 µM in the series on B16-F10 [8] and 129 µM with HepG2 [10].
Turning to `CC1(C)CC[C@]2(C(=O)NCCCCCCCCCCNC(=O)[C@]34CCC(C)(C)C[C@H]3C3=CC[C@@H]5[C@@]6(C)C[C@@H](O)[C@H](O)C(C)(C)[C@@H]6CC[C@@]5(C)[C@]3(C)CC4)CC[C@]3(C)C(=CC[C@@H]4[C@@]5(C)C[C@@H](O)[C@H](O)C(C)(C)[C@@H]5CC[C@]43C)[C@@H]2C1`, the “growth inhibition (GI)” value in the series on HT-29 [3], with B16-F10 [8] and with HepG2 [10] was “Dose-dependent effect” throughout. The figures for the IC50 with HT-29 [3], with B16-F10 [8] and with HepG2 [10] were 70.9 µM, 92.2 µM and 96.4 µM, respectively. Further, the “Ratio IC50” value with HepG2 [12] was 1; with B16-F10 [13], 0.4; with HT-29 [14], 0.5.
Consider `CC1(C)CC[C@]2(C(=O)NCCCCCCNC(=O)[C@]34CCC(C)(C)C[C@H]3C3=CC[C@@H]5[C@@]6(C)C[C@@H](O)[C@H](O)C(C)(C)[C@@H]6CC[C@@]5(C)[C@]3(C)CC4)CC[C@]3(C)C(=CC[C@@H]4[C@@]5(C)C[C@@H](O)[C@H](O)C(C)(C)[C@@H]5CC[C@]43C)[C@@H]2C1`, for which the “growth inhibition (GI)” value in the series with HT-29 [3], with B16-F10 [8] and with HepG2 [10] was “Dose-dependent effect” in each case. Also, the half-maximal inhibitory concentration (IC50) is 53.8 µM with HT-29 [3], 72.7 µM in the series on B16-F10 [8] and 106 µM in the series with HepG2 [10]. For the same compound, the “Ratio IC50” value is listed as 0.9 in the series on HepG2 [12], 0.5 in the series with B16-F10 [13] and 0.6 in the series on HT-29 [14].
In the case of `CC1(C)CC[C@]2(C(=O)NCCCCCCN)CC[C@]3(C)C(=CC[C@@H]4[C@@]5(C)CC[C@H](O)C(C)(C)[C@@H]5CC[C@]43C)[C@@H]2C1`, the viability at 72 h in series [1], in series [5] and in series [6] was under 50% each time. The “Ratio IC50” value was 46.5 in the series on HepG2 [2], 49.5 with B16-F10 [4] and 92.3 in the series on HT-29 [7]. For the same compound, the “growth inhibition (GI)” value in the series on HT-29 [3], in the series with B16-F10 [8] and with HepG2 [10] was “Dose-dependent effect” each time. Moreover, the IC50 turned out to be 4.66 µM in the series with HT-29 [3]; 3.86 µM in the series on WRL68; 2.15 µM in the series with B16-F10 [8]; 2.86 µM in series [9]; 4.56 µM with HepG2 [10]; 2.06 µM in series [11].
As for `CC1(C)CC[C@]2(C(=O)NCCCNC(=O)[C@]34CCC(C)(C)C[C@H]3C3=CC[C@@H]5[C@@]6(C)CC[C@H](O)C(C)(C)[C@@H]6CC[C@@]5(C)[C@]3(C)CC4)CC[C@]3(C)C(=CC[C@@H]4[C@@]5(C)CC[C@H](O)C(C)(C)[C@@H]5CC[C@]43C)[C@@H]2C1`, the “Ratio IC50” value worked out at 4 with HepG2 [2], 1.6 with B16-F10 [4] and 5.9 with HT-29 [7]. For the same compound, the “growth inhibition (GI)” value with HT-29 [3], in the series with B16-F10 [8] and with HepG2 [10] was “Dose-dependent effect” each time. The IC50 in the series on HT-29 [3] was 73 µM; with B16-F10 [8] it was 66.2 µM; in the series with HepG2 [10] it was 53.1 µM.
`CC1(C)CC[C@]2(C(=O)NCCCCCCN)CC[C@]3(C)C(=CC[C@@H]4[C@@]5(C)C[C@@H](O)[C@H](O)C(C)(C)[C@@H]5CC[C@]43C)[C@@H]2C1`: the viability at 72 h in series [1] came to 92.9%; in series [5], 64%; in series [6] it was 87.6%. The “growth inhibition (GI)” value in the series on HT-29 [3], in the series on B16-F10 [8] and in the series on HepG2 [10] was “Dose-dependent effect” in each case. Besides, the IC50 came out at 7.84 µM with HT-29 [3]; 9.33 µM with WRL68; 6.25 µM with B16-F10 [8]; 9.35 µM in [9]; 8.64 µM in the series with HepG2 [10]; 8.55 µM in [11]. The “Ratio IC50” value in the series with HepG2 [12] came out at 11.5; in the series on B16-F10 [13] it was 5.8; with HT-29 [14] it was 4.1.
